What was measured:
barnyardgrass [1] = test: Test A preemergence; assay type: in vivo, Echinochloa crusgalli
Text: (§1) Seeds of plant species selected from barnyardgrass (Echinochloa crusgalli), blackgrass (Alopecurus myosuroides), corn (Zea mays), foxtail, giant (giant foxtail, Setaria faberi), goosegrass (Eleusine indica), kochia (Bassia scoparia), oat, wild (wild oat, Avena fatua), pigweed, palmer (palmer amaranth, palmer pigweed, Amaranthus palmeri), Pigweed, Redroot (redroot pigweed, Amaranthus retroflexus), ragweed (common ragweed, Ambrosia artemisiifolia), ryegrass, Italian (italian ryegrass, Lolium multiflorum), soybean (Glycine max), and wheat (Triticum aestivum) were planted into a blend of loam soil and sand and treated preemergence with a directed soil spray using test chemicals formulated in a non-phytotoxic solvent mixture which included a surfactant. At the same time, plants selected from these crops and weed species and also galium (catchweed bedstraw, Galium aparine) and horseweed (Erigeron canadensis) were planted in pots containing the same blend of loam soil and sand and treated with postemergence applications of test chemicals formulated in the same manner. Plants ranged in height from 2 to 10 cm and were in the one- to two-leaf stage for the postemergence treatment. Treated plants and untreated controls were maintained in a greenhouse for 10 days, after which time all treated plants were compared to untreated controls and visually evaluated for injury. Plant response ratings, summarized in Table A, are based on a 0 to 100 scale where 0 is no effect and 100 is complete control. A dash (-) response means no test result.

blackgrass [2] = test: Test A preemergence; assay type: in vivo, Alopecurus myosuroides
How it was run: (§2)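 Visual injury ratings on a 0–100 scale (100 = complete control) versus untreated controls, taken 10 days after treatment in greenhouse. Preemergence: directed soil spray onto seeded loam/sand. Postemergence: foliar application at one- to two-leaf stage, plants 2–10 cm. Formulation: non-phytotoxic solvent plus surfactant.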

corn [3] = test: Test A preemergence; assay type: in vivo, Zea mays; conditions: 0 to 100 scale
How it was run: as §2

kochia [4] = test: Test A preemergence; assay type: in vivo, Bassia scoparia
How it was run: as §2

oat, wild [5] = test: Test A preemergence; assay type: in vivo, Avena fatua; conditions: 0 to 100 scale
How it was run: as §2

pigweed, palmer [6] = test: Test A preemergence; assay type: in vivo, Amaranthus palmeri
How it was run: as §2

ragweed [7] = test: Test A preemergence; assay type: in vivo, Ambrosia artemisiifolia
How it was run: as §2

ryegrass, Italian [8] = test: Test A preemergence; assay type: in vivo, Lolium multiflorum
How it was run: as §2

soybean [9] = test: Test A preemergence; assay type: in vivo, Glycine max; conditions: 0 to 100 scale
How it was run: as §2

wheat [10] = test: Test A preemergence; assay type: in vivo, Triticum aestivum; conditions: 0 to 100 scale
How it was run: as §2

barnyardgrass [11] = test: Test A postemergence; assay type: in vivo, Echinochloa crusgalli
Text: as §1

blackgrass [12] = test: Test A postemergence; assay type: in vivo, Alopecurus myosuroides
How it was run: as §2

corn [13] = test: Test A postemergence; assay type: in vivo, Zea mays; conditions: postemergence, 10 days
How it was run: as §2

kochia [14] = test: Test A postemergence; assay type: in vivo, Bassia scoparia
How it was run: as §2

oat, wild [15] = test: Test A postemergence; assay type: in vivo, Avena fatua; conditions: postemergence, 10 days
How it was run: as §2

pigweed, palmer [16] = test: Test A postemergence; assay type: in vivo, Amaranthus palmeri
How it was run: as §2

ragweed [17] = test: Test A postemergence; assay type: in vivo, Ambrosia artemisiifolia
How it was run: as §2

ryegrass, Italian [18] = test: Test A postemergence; assay type: in vivo, Lolium multiflorum
How it was run: as §2

soybean [19] = test: Test A postemergence; assay type: in vivo, Glycine max; conditions: postemergence, 10 days
How it was run: as §2

wheat [20] = test: Test A postemergence; assay type: in vivo, Triticum aestivum; conditions: postemergence, 10 days
How it was run: as §2

galium = test: Test A postemergence; assay type: in vivo, Galium aparine
How it was run: as §2

horseweed = test: Test A postemergence; assay type: in vivo, Erigeron canadensis
How it was run: as §2

barnyardgrass [21] = test: Test B flooded paddy test; assay type: in vivo, Echinochloa crus-galli; conditions: 250 g ai/ha, Flood, 13 days, 0 to 100 scale (0 no effect, 100 complete control)
How it was run: (§3)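 2-leaf stage; pots flooded 3 cm over soil; compound dosed into paddy water; depth kept constant. Greenhouse, 13 d. Visual rating vs controls, 0 (no effect)–100 (complete control). Dash = no result.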

ducksalad = test: Test B flooded paddy test; assay type: in vivo, Heteranthera limosa; conditions: 250 g ai/ha, Flood, 13 days, 0 to 100 scale (0 no effect, 100 complete control)
How it was run: as §3

rice = test: Test B flooded paddy test; assay type: in vivo, Oryza sativa; conditions: 250 g ai/ha, Flood, 13 days, 0 to 100 scale (0 no effect, 100 complete control)
How it was run: as §3

sedge, umbrella = test: Test B flooded paddy test; assay type: in vivo, Cyperus difformis; conditions: 250 g ai/ha, Flood, 13 days, 0 to 100 scale (0 no effect, 100 complete control)
How it was run: as §3

foxtail, giant [22] = test: Test A preemergence; assay type: in vivo, Setaria faberi; conditions: 1000 g ai/ha, 0 to 100 scale (0 no effect, 100 complete control), 10 days
How it was run: as §2

foxtail, giant [23] = test: Test A postemergence; assay type: in vivo, Setaria faberi; conditions: 1000 g ai/ha, Postemergence; 0 to 100 scale
How it was run: as §2

[24] = 500 g ai/ha, visual injury after 10 days, 0 to 100 scale, 0 is no effect, 100 is complete control
[25] = 500 g ai/ha, visual injury after 10 days, 0 is no effect, 100 is complete control
[26] = 125 g ai/ha, postemergence, 10 days, 0 to 100 scale, 0 no effect, 100 complete control
[27] = 500 g ai/ha, postemergence, 10 days, visual injury, 0 to 100 scale (0 no effect, 100 complete control)
[28] = 125 g ai/ha, 0 to 100 scale, 0 no effect, 100 complete control
[29] = 500 g ai/ha, visual injury, 0 to 100 scale (0 no effect, 100 complete control)
[30] = 1000 g ai/ha, 0 to 100 scale (0 no effect, 100 complete control), 10 days
[31] = 1000 g ai/ha, Postemergence, 0 to 100 scale

C[C@H]1CN(C(=O)c2cc(I)cc(-n3cncn3)c2)c2cccc(Cl)c2O1 [Compound 137]
Plant response rating, Barnyardgrass (barnyardgrass [1]; 125 g ai/ha, visual injury after 10 days, 0 to 100 scale, 0 is no effect, 100 is complete control): 0
Plant response rating, Barnyardgrass (barnyardgrass [1]; [24]): 40
Plant response rating, Blackgrass (blackgrass [2]; 125 g ai/ha, 0 to 100 scale): 0
Plant response rating, Blackgrass (blackgrass [2]; [24]): 30
Plant response rating, Corn (corn [3]; 125 g ai/ha): 0
Plant response rating, Corn (corn [3]; [25]): 50
Plant response rating, Kochia (kochia [4]; 125 g ai/ha, 0 to 100 scale): 0
Plant response rating, Kochia (kochia [4]; [24]): 0
Plant response rating, Oat, Wild (oat, wild [5]; 125 g ai/ha): 0
Plant response rating, Oat, Wild (oat, wild [5]; [25]): 0
Plant response rating, Pigweed, Palmer (pigweed, palmer [6]; 125 g ai/ha, 0 to 100 scale): 10
Plant response rating, Pigweed, Palmer (pigweed, palmer [6]; [24]): 80
Plant response rating, Ragweed (ragweed [7]; 125 g ai/ha, 0 to 100 scale): 0
Plant response rating, Ragweed (ragweed [7]; [24]): 0
Plant response rating, Ryegrass, Italian (ryegrass, Italian [8]; 125 g ai/ha, 0 to 100 scale): 70
Plant response rating, Ryegrass, Italian (ryegrass, Italian [8]; [24]): 80
Plant response rating, Soybean (soybean [9]; 125 g ai/ha): 0
Plant response rating, Soybean (soybean [9]; [25]): 0
Plant response rating, Wheat (wheat [10]; 125 g ai/ha): 0
Plant response rating, Wheat (wheat [10]; [25]): 0
Barnyardgrass plant response rating (barnyardgrass [11]; [26]): 10
Plant response rating, Barnyardgrass (barnyardgrass [11]; [27]): 10
Blackgrass plant response rating (blackgrass [12]; [26]): 20
Plant response rating, Blackgrass (blackgrass [12]; [27]): 70
Corn plant response rating (corn [13]; [28]): 10
Plant response rating, Corn (corn [13]; [29]): 10
Kochia plant response rating (kochia [14]; [26]): 30
Plant response rating, Kochia (kochia [14]; [27]): 70
Oat, Wild plant response rating (oat, wild [15]; [28]): 0
Plant response rating, Oat, Wild (oat, wild [15]; [29]): 0
Pigweed, Palmer plant response rating (pigweed, palmer [16]; [26]): 30
Plant response rating, Pigweed, Palmer (pigweed, palmer [16]; [27]): 60
Ragweed plant response rating (ragweed [17]; [26]): 30
Plant response rating, Ragweed (ragweed [17]; [27]): 30
Ryegrass, Italian plant response rating (ryegrass, Italian [18]; [26]): 20
Plant response rating, Ryegrass, Italian (ryegrass, Italian [18]; [27]): 30
Soybean plant response rating (soybean [19]; [28]): 80
Plant response rating, Soybean (soybean [19]; [29]): 90
Wheat plant response rating (wheat [20]; [28]): 10
Plant response rating, Wheat (wheat [20]; [29]): 10
Galium plant response rating (galium; [26]): 80
Plant response rating, Galium (galium; [27]): 90
Horseweed plant response rating (horseweed; [26]): 0
Plant response rating, Horseweed (horseweed; [27]): 30
Plant response rating, Barnyardgrass (barnyardgrass [21]): 0
Plant response rating, Ducksalad (ducksalad): 0
Plant response rating, Rice (rice): 0
Plant response rating, Sedge, Umbrella (sedge, umbrella): 0

Cc1cccc2c1O[C@@H](C)CN2C(=O)c1cccc(-n2cc(Cl)cn2)c1 [Compound 132]
Plant response rating, Barnyardgrass (barnyardgrass [1]; [30]): 10
Plant response rating, Blackgrass (blackgrass [2]; [30]): 0
Plant response rating, Foxtail, Giant (foxtail, giant [22]): 0
Plant response rating, Kochia (kochia [4]; [30]): 0
Plant response rating, Pigweed, Palmer (pigweed, palmer [6]; [30]): 0
Plant response rating, Ragweed (ragweed [7]; [30]): 0
Plant response rating, Ryegrass, Italian (ryegrass, Italian [8]; [30]): 0
Plant response rating, Barnyardgrass (barnyardgrass [11]; [31]): 0
Plant response rating, Blackgrass (blackgrass [12]; [31]): 0
Plant response rating, Foxtail, Giant (foxtail, giant [23]): 10
Plant response rating, Kochia (kochia [14]; [31]): 20
Plant response rating, Pigweed, Palmer (pigweed, palmer [16]; [31]): 0
Plant response rating, Ragweed (ragweed [17]; [31]): 0
Plant response rating, Ryegrass, Italian (ryegrass, Italian [18]; [31]): 0
Plant response rating, Galium (galium; [31]): 0
Plant response rating, Horseweed (horseweed; [31]): 0
